Results reported in patent US5637501A, “Apparatus for automatically testing the antibiotic sensitivity of a paraffinophilic microorganism” (Infectech, Inc., priority 1995, dated 1997).
≈ marks a conversion by molar mass, not a printed value. Like-named read-outs stand apart in the source and are kept apart here.

Test system: MAI
Assay: antibiotic sensitivity (MIC) of MAI strains, paraffin slide culture and microliter assays
Format: cell-based, Mycobacterium avium-intracellulare
Parameters: key: NG: No Growth
Source text: The present invention has met the above-described need. In one embodiment, it provides a method of automatically testing the sensitivity of a paraffinophilic microorganism to different antimicrobial agents, such as antibiotics, and concentrations thereof, by providing a plurality of receptacles, each containing an amount of liquid medium, an antimicrobial agent to be tested and the microorganism to be tested. In each of the receptacles is placed a slide containing a paraffin source. The receptacles are then incubated, after which a light scatter sensing means automatically and sequentially monitors the extent of microorganism growth on the slides. The extent of colony growth is employed to determine which antimicrobial agent in which concentration is effective to resist growth of the microorganism. A preferred light scatter sensing means is a nephelometer.
Referring specifically to FIG. 1, there is shown a preferred embodiment of the present invention usable in a method of automatically testing the sensitivity of a pure culture of a microorganism to different antimicrobial agents and concentrations thereof. In this embodiment, a microorganism, which may have been previously speciated as by the technique taught in U.S. Pat. No. 5,153, 119, has been introduced into a plurality of receptacles, each containing an amount of liquid medium and antimicrobial agent to be tested. A paraffin slide is introduced into each of the receptacles which are subsequently incubated. The receptacles 2-22 (even numbers only) are fixedly secured to an elongated, substantially rigid movable carrier member 26, such that the receptacles 2-22 will be translated therewith in the direction shown by the arrow A. The carrier member 26 may be made of any suitable material, such as aluminum, steel, stainless steel, or resinous plastic, for example. The receptacles 2-22, respectively, contain slides 32-52 (even numbers only). The slides 32-52 are fixedly secured, respectively, within receptacles 2-22 which may test tubes. The slides 32-52 are generally oriented so as to have their elongated direction aligned with the direction of travel of the carrier 26. As the carrier moves in the direction of arrow A, the slides 2-22 will sequentially be positioned in operative relationship to the light scatter sensing means which consists of light source 60, which directs a light beam toward light detector 62. In the preferred embodiment, a beam of visible light from light source 60 will impinge upon slide 32, with the growth of the microorganism thereon producing a corresponding scatter of light which is received by the light receiving sensor 62 and converts the received light into an appropriate output electrical signal which will be delivered to computer means 64. The computer means 64, in turn, provides output to output means 66, which may conveniently be a display, such as a cathode ray tube or a hard copy printer, for example. The degree of light scatter will be related to the extent of microorganism growth with light scatter increasing as growth on the slide increases.
The computer means 64 may be a general purpose digital microprocessor. It may be programmed in a manner readily known to those skilled in the art to sequentially compare the light scatter value of each slide 32-52 with that of a control slide and to provide an output to output means 66, such as a visual screen display or hard copy, with or without prior enhancement, which indicates the difference between the control slide and the specific slides containing the same pure culture of a paraffinophilic microorganism, but exposed to different concentrations of different or the same antimicrobial agents, such an antibiotics. In this manner, there is provided the minimal concentration level of a specific antimicrobial agent that must be used to control growth of the microorganism. Also, the minimum bactericidal concentration may be determined. […]

[1] = Table 2, Exp. Series I, strain 7

MIC (Mycobacterium avium-intracellulare, Table 2, Exp. Series I, strain 1, read-out: MIC): > 16 µg/mL
MIC (Mycobacterium avium-intracellulare, Table 2, Exp. Series I, strain 2, read-out: MIC): > 16 µg/mL
MIC (Mycobacterium avium-intracellulare, Table 2, Exp. Series I, strain 3, read-out: MIC): 6.4 µg/mL (≈ 10.9 µM)
MIC (Mycobacterium avium-intracellulare, Table 2, Exp. Series I, strain 4, read-out: MIC): 3.2 µg/mL (≈ 5.46 µM)
MIC (Mycobacterium avium-intracellulare, Table 2, Exp. Series I, strain 5, read-out: MIC): 6.4 µg/mL (≈ 10.9 µM)
MIC (Mycobacterium avium-intracellulare, Table 2, Exp. Series I, strain 6, read-out: MIC): 12 µg/mL (≈ 20.5 µM)
MIC (Mycobacterium avium-intracellulare, Table 2, Exp. Series I, strain 8, read-out: MIC): > 16 µg/mL
MIC (Mycobacterium avium-intracellulare, Table 2, Exp. Series I, strain 9, read-out: MIC): 12 µg/mL (≈ 20.5 µM)
MIC (Mycobacterium avium-intracellulare, Table 2, Exp. Series I, strain 10, read-out: MIC): 6.4 µg/mL (≈ 10.9 µM)
MIC (Mycobacterium avium-intracellulare, Table 2, Exp. Series I, strain 11, read-out: MIC): 7.3 µg/mL (≈ 12.5 µM)
MIC (Mycobacterium avium-intracellulare, Table 2, Exp. Series I, strain 12, read-out: MIC): 3.2 µg/mL (≈ 5.46 µM)
MIC (Mycobacterium avium-intracellulare, Table 2, Exp. Series I, strain 13, read-out: MIC): 3.2 µg/mL (≈ 5.46 µM)
MIC (Mycobacterium avium-intracellulare, Table 2, Exp. Series I, strain 14, read-out: MIC): 9.6 µg/mL (≈ 16.4 µM)
MIC (Mycobacterium avium-intracellulare, Table 2, Exp. Series I, strain 15, read-out: MIC): 6.4 µg/mL (≈ 10.9 µM)
MIC (Mycobacterium avium-intracellulare, Table 2, Exp. Series I, strain 16, read-out: MIC): 6.4 µg/mL (≈ 10.9 µM)
MIC (Mycobacterium avium-intracellulare, Table 2, Exp. Series II, strain 1, read-out: MIC): > 16 µg/mL
MIC (Mycobacterium avium-intracellulare, Table 2, Exp. Series II, strain 2, read-out: MIC): 12 µg/mL (≈ 20.5 µM)
MIC (Mycobacterium avium-intracellulare, Table 2, Exp. Series II, strain 3, read-out: MIC): 6.4 µg/mL (≈ 10.9 µM)
MIC (Mycobacterium avium-intracellulare, Table 2, Exp. Series II, strain 4, read-out: MIC): 6.4 µg/mL (≈ 10.9 µM)
MIC (Mycobacterium avium-intracellulare, Table 2, Exp. Series II, strain 5, read-out: MIC): 3.2 µg/mL (≈ 5.46 µM)
MIC (Mycobacterium avium-intracellulare, Table 2, Exp. Series II, strain 6, read-out: MIC): 3.2 µg/mL (≈ 5.46 µM)
MIC (Mycobacterium avium-intracellulare, Table 2, Exp. Series II, strain 7, read-out: MIC): 6.4 µg/mL (≈ 10.9 µM)
MIC (Mycobacterium avium-intracellulare, Table 2, Exp. Series II, strain 8, read-out: MIC): > 16 µg/mL
MIC (Mycobacterium avium-intracellulare, Table 2, Exp. Series II, strain 9, read-out: MIC): 3.2 µg/mL (≈ 5.46 µM)
MIC (Mycobacterium avium-intracellulare, Table 2, Exp. Series II, strain 10, read-out: MIC): 6.4 µg/mL (≈ 10.9 µM)
MIC (Mycobacterium avium-intracellulare, Table 2, Exp. Series II, strain 11, read-out: MIC): 9.6 µg/mL (≈ 16.4 µM)
MIC (Mycobacterium avium-intracellulare, Table 2, Exp. Series II, strain 12, read-out: MIC): 6.4 µg/mL (≈ 10.9 µM)
MIC (Mycobacterium avium-intracellulare, Table 2, Exp. Series II, strain 13, read-out: MIC): 9.6 µg/mL (≈ 16.4 µM)
MIC (Mycobacterium avium-intracellulare, Table 2, Exp. Series II, strain 14, read-out: MIC): > 16 µg/mL
MIC (Mycobacterium avium-intracellulare, Table 2, Exp. Series II, strain 15, read-out: MIC): 6.4 µg/mL (≈ 10.9 µM)
MIC (Mycobacterium avium-intracellulare, Table 2, Exp. Series II, strain 16, read-out: MIC): 9.6 µg/mL (≈ 16.4 µM)
MIC (Mycobacterium avium-intracellulare, Table 2, Exp. Series III, strain 1, read-out: MIC): 3.2 µg/mL (≈ 5.46 µM)
MIC (Mycobacterium avium-intracellulare, Table 2, Exp. Series III, strain 2, read-out: MIC): 3.2 µg/mL (≈ 5.46 µM)
MIC (Mycobacterium avium-intracellulare, Table 2, Exp. Series III, strain 3, read-out: MIC): 6.4 µg/mL (≈ 10.9 µM)
MIC (Mycobacterium avium-intracellulare, Table 2, Exp. Series III, strain 4, read-out: MIC): 3.2 µg/mL (≈ 5.46 µM)
MIC (Mycobacterium avium-intracellulare, Table 2, Exp. Series III, strain 5, read-out: MIC): 3.2 µg/mL (≈ 5.46 µM)
MIC (Mycobacterium avium-intracellulare, Table 2, Exp. Series III, strain 6, read-out: MIC): 3.2 µg/mL (≈ 5.46 µM)
MIC (Mycobacterium avium-intracellulare, Table 2, Exp. Series III, strain 7, read-out: MIC): 6.4 µg/mL (≈ 10.9 µM)
MIC (Mycobacterium avium-intracellulare, Table 2, Exp. Series III, strain 8, read-out: MIC): 3.2 µg/mL (≈ 5.46 µM)
MIC (Mycobacterium avium-intracellulare, Table 2, Exp. Series III, strain 9, read-out: MIC): 3.2 µg/mL (≈ 5.46 µM)
MIC (Mycobacterium avium-intracellulare, Table 2, Exp. Series III, strain 10, read-out: MIC): 3.2 µg/mL (≈ 5.46 µM)
MIC (Mycobacterium avium-intracellulare, Table 2, Exp. Series III, strain 11, read-out: MIC): 6.4 µg/mL (≈ 10.9 µM)
MIC (Mycobacterium avium-intracellulare, Table 2, Exp. Series III, strain 12, read-out: MIC): 6.4 µg/mL (≈ 10.9 µM)
MIC (Mycobacterium avium-intracellulare, Table 2, Exp. Series III, strain 13, read-out: MIC): 6.4 µg/mL (≈ 10.9 µM)
MIC (Mycobacterium avium-intracellulare, Table 2, Exp. Series III, strain 14, read-out: MIC): 6.4 µg/mL (≈ 10.9 µM)
MIC (Mycobacterium avium-intracellulare, Table 2, Exp. Series III, strain 15, read-out: MIC): 3.2 µg/mL (≈ 5.46 µM)
MIC (Mycobacterium avium-intracellulare, Table 2, Exp. Series III, strain 16, read-out: MIC): 3.2 µg/mL (≈ 5.46 µM)
MIC [1]: NG
Compound: NCC[C@H](O)C(=O)N[C@@H]1C[C@H](N)[C@@H](O[C@H]2O[C@H](CN)[C@@H](O)[C@H](O)[C@H]2O)[C@H](O)[C@H]1O[C@H]1O[C@H](CO)[C@@H](O)[C@H](N)[C@H]1O [amikacin]
Days to Confluency (Table 2, Exp. Series I, strain 1): 7 days
Days to Confluency (Table 2, Exp. Series I, strain 2): 7 days
Days to Confluency (Table 2, Exp. Series I, strain 3): 8 days
Days to Confluency (Table 2, Exp. Series I, strain 4): 8 days
Days to Confluency (Table 2, Exp. Series I, strain 5): 7 days
Days to Confluency (Table 2, Exp. Series I, strain 6): 7 days
Days to Confluency [1]: NG
Days to Confluency (Table 2, Exp. Series I, strain 8): 7 days
Days to Confluency (Table 2, Exp. Series I, strain 9): 8 days
Days to Confluency (Table 2, Exp. Series I, strain 10): 6 days
Days to Confluency (Table 2, Exp. Series I, strain 11): 5 days
Days to Confluency (Table 2, Exp. Series I, strain 12): 5 days
Days to Confluency (Table 2, Exp. Series I, strain 13): 6 days
Days to Confluency (Table 2, Exp. Series I, strain 14): 5 days
Days to Confluency (Table 2, Exp. Series I, strain 15): 5 days
Days to Confluency (Table 2, Exp. Series I, strain 16): 5 days
Days to Confluency (Table 2, Exp. Series II, strain 1): 7 days
Days to Confluency (Table 2, Exp. Series II, strain 2): 7 days
Days to Confluency (Table 2, Exp. Series II, strain 3): 9 days
Days to Confluency (Table 2, Exp. Series II, strain 4): 5 days
Days to Confluency (Table 2, Exp. Series II, strain 5): 5 days
Days to Confluency (Table 2, Exp. Series II, strain 6): 5 days
Days to Confluency (Table 2, Exp. Series II, strain 7): 5 days
Days to Confluency (Table 2, Exp. Series II, strain 8): 7 days
Days to Confluency (Table 2, Exp. Series II, strain 9): 6 days
Days to Confluency (Table 2, Exp. Series II, strain 10): 6 days
Days to Confluency (Table 2, Exp. Series II, strain 11): 6 days
Days to Confluency (Table 2, Exp. Series II, strain 12): 6 days
Days to Confluency (Table 2, Exp. Series II, strain 13): 6 days
Days to Confluency (Table 2, Exp. Series II, strain 14): 6 days
Days to Confluency (Table 2, Exp. Series II, strain 15): 6 days
Days to Confluency (Table 2, Exp. Series II, strain 16): 6 days
Days to Confluency (Table 2, Exp. Series III, strain 1): 5 days
Days to Confluency (Table 2, Exp. Series III, strain 2): 5 days
Days to Confluency (Table 2, Exp. Series III, strain 3): 12 days
Days to Confluency (Table 2, Exp. Series III, strain 4): 6 days
Days to Confluency (Table 2, Exp. Series III, strain 5): 5 days
Days to Confluency (Table 2, Exp. Series III, strain 6): 5 days
Days to Confluency (Table 2, Exp. Series III, strain 7): 5 days
Days to Confluency (Table 2, Exp. Series III, strain 8): 5 days
Days to Confluency (Table 2, Exp. Series III, strain 9): 7 days
Days to Confluency (Table 2, Exp. Series III, strain 10): 5 days
Days to Confluency (Table 2, Exp. Series III, strain 11): 5 days
Days to Confluency (Table 2, Exp. Series III, strain 12): 5 days
Days to Confluency (Table 2, Exp. Series III, strain 13): 6 days
Days to Confluency (Table 2, Exp. Series III, strain 14): 5 days
Days to Confluency (Table 2, Exp. Series III, strain 15): 5 days
Days to Confluency (Table 2, Exp. Series III, strain 16): 5 days
